We go through 4 compounds from ChEMBL document CHEMBL5465560, “Selectivity Literature for EUbOPEN Chemogenomic Library” (2024).

Test [1] has as its target T1, Serine/threonine-protein kinase STK11 (Homo sapiens) (UniProt Q15831).
T1 sequence (whole entry): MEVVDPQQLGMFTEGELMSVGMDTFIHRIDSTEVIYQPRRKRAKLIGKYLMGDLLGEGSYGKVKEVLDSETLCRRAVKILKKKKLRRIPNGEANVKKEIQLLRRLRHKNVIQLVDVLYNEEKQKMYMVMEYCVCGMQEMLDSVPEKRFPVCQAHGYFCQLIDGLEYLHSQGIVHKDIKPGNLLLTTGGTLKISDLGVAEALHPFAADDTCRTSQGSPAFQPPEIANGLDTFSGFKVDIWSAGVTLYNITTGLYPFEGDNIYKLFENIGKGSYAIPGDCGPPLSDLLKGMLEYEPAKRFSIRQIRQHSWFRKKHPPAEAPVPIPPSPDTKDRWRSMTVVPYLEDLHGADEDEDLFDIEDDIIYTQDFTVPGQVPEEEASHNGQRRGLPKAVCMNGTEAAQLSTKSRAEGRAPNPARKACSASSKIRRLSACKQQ
The test can be described thus: Selectivity interaction (KinomeScan (DiscoverX)) EUB0001079a STK11. As to conditions: at 1 µM.

Test [2] concerns the target T2, Peripheral plasma membrane protein CASK (Homo sapiens) (UniProt O14936).
T2 sequence (whole entry): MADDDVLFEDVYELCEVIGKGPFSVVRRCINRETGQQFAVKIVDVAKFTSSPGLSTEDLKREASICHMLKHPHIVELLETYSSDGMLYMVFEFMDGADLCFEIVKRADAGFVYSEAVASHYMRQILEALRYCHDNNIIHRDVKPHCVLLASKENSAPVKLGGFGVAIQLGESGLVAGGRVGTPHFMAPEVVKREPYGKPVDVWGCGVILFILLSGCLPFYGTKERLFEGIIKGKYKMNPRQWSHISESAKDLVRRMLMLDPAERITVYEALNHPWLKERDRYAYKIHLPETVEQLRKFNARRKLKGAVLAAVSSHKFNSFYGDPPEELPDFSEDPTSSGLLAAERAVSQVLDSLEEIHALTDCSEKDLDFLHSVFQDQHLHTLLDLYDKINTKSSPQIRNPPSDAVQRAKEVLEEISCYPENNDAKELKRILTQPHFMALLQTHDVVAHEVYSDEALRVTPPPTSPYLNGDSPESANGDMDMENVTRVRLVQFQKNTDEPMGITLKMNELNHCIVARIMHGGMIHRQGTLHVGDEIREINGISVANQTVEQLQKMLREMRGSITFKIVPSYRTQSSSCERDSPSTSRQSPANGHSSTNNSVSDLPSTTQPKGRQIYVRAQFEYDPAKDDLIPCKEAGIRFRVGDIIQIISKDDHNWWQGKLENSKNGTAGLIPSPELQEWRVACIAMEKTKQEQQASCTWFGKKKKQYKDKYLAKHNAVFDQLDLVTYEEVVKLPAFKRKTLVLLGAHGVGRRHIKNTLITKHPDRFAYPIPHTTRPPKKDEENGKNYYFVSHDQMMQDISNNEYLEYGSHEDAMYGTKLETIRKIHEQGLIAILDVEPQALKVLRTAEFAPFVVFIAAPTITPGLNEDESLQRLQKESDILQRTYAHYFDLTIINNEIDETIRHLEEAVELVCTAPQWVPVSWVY
Kind of test: Selectivity interaction (LanthaScreen Eu Kinase Binding Assay) EUB0001632a CASK. As to conditions: at 10 µM.

Test [3] concerns the target T3, Serine/threonine-protein kinase ULK1 (Homo sapiens) (UniProt O75385).
T3 sequence (whole entry): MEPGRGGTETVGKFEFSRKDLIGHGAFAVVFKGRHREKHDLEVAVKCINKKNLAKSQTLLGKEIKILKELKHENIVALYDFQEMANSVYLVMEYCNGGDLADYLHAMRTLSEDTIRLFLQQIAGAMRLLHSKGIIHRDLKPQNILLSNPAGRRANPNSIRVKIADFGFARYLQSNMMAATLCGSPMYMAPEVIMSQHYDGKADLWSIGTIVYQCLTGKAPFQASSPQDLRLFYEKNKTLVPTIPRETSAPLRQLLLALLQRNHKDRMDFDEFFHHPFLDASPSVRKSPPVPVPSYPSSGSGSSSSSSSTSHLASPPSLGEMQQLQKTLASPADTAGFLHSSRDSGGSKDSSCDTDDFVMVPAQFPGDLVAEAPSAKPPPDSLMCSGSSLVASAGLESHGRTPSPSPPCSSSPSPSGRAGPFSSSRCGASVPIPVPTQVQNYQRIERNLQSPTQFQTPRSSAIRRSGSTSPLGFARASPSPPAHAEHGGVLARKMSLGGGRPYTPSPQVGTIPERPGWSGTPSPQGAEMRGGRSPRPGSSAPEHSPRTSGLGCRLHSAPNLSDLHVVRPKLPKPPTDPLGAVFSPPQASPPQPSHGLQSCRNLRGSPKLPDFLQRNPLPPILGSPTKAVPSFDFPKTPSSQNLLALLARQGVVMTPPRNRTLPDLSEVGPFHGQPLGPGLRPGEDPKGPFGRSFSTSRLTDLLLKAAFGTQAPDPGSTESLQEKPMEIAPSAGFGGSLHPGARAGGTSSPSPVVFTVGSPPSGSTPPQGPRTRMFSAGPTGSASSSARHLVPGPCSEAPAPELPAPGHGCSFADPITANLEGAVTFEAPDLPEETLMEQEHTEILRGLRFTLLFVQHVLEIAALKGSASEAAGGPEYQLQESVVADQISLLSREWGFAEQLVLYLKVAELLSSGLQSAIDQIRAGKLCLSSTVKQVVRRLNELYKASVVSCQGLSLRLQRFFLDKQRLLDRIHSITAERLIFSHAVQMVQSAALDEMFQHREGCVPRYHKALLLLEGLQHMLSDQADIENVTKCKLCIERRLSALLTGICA
Kind of test: Selectivity interaction (ActivX KiNativ screen (kinase selectivity in THP-1 cell lysates)) EUB0000639a ULK1. It is filed as subcellular. As to conditions: lysate, at 1 µM.

In test [4] the target is T4, Serine/threonine-protein kinase 4 (Homo sapiens) (UniProt Q13043).
T4 sequence (whole entry): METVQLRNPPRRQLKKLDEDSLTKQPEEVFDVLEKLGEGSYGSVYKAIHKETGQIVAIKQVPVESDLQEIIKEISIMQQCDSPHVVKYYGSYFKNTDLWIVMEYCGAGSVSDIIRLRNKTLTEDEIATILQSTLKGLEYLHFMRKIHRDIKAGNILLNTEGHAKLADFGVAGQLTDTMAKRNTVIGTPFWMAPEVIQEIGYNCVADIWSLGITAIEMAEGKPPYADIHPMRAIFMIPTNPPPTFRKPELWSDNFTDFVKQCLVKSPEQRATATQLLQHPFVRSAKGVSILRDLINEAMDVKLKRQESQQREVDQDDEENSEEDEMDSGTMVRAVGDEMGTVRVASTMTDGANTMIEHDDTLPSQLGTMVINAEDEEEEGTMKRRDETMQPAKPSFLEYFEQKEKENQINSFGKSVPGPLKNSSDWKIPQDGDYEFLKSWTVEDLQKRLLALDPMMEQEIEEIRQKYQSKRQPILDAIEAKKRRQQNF
The test can be described thus: Selectivity interaction (KinomeScan (DiscoverX)) EUB0000229b STK4. As to conditions: at 10 µM.

As to `Nc1cnc(N2CCc3cc(S(=O)(=O)Nc4c(F)cc(Cl)cc4F)cc(N4CCCC4=O)c32)nc1` [TP-020n], in test [1], the % of control was determined as 100%.

Regarding `Cn1cc(-n2cnc3c(NCc4nc5cc(Cl)c(Cl)cc5[nH]4)nc(N4CCOCC4)nc32)cn1`, in test [2], the % of inhibition was -92.6%.

For the compound `CC[C@@H]1[C@H](F)C(=O)N[C@@H]1COc1nccc2cc(C(N)=O)c(OC)cc12` [ZIMLOVISERTIB], the % of inhibition in test [3] was -53.5%.

As for `COc1cc(N(C)c2ccnc3ccc(C(F)(F)F)cc23)cc(OC)c1OC`, in test [4], the % binding is 99%.
